Literature values, collected in patent US20090209656A1, “DISINFECTION/SANITATION METHOD WHERE THE MATERIAL IS TREATED WITH A SOLUTION COMPRISING BENZYL ALCOHOL AND C2-3 ALCOHOL” (GE HEALTHCARE BIO-SCIENCES AB, priority 2006, published 2009).

Tests used:
[1] = acute toxicity
[2] = long-term exposure

For `OCc1ccccc1` [benzyl alcohol], the LD50 [1] is listed as 1610 mg/kg body weight and the NOAEL [2] is listed as > 400 mg/kg body weight/day.
